Patent US20250003951A1, “METHOD AND COMPOSITION” (Oxford University Innovation Limited, priority 2021, published 2025)

How the values were obtained:
Assay type in all cases: cell-based, human
[1] = system: donor-derived T cells taken from the patient post-allo-SCT; assay: IFNγ ELISpot with HLA-blocking antibodies (HLA restriction); conditions: for Restricting HLA allele: candidate alleles separated by /
Text: (§1) FIG. 3: Characterisation of GvL T cell responses. a) IFNγ ELISpot results following stimulation of post-transplant PB with GvL peptide+/−antibodies blocking HLA pan-class I (W6/32), pan-class II (Tü39), HLA-DR (L243), -DQ (Tü169) and -DP (B7/21). Negative control without peptide (DMSO). b) Flow cytometry with intracellular cytokine staining showing % T cells positive for IFNγ, TNFα, CD107a after treatment with peptide vs no treatment. […] The generic workflow established in Example 1 was used to identify the antigenic basis of GvL in further patients. In brief, mismatched peptides identified by in silico prediction and mass spectrometry for each patient were screened for their ability to activate donor-derived T cells taken from the patient post-allo-SCT, using IFNγ ELISpot assays. HLA restriction was investigated using IFNγ ELISpots with HLA-blocking antibodies. The nature and frequency of peptide-responsive T cells (i.e. cells producing cytokines (IFNγ, TNFα) and expression of the degranulation marker (CD107a) following peptide contact) were assessed by culturing post-transplant blood with peptide for 12 days and then stimulating with the peptide. Responses were assessed by flow cytometry.

[2] = system: peptide-responsive T cells from post-transplant blood; assay: Flow cytometry immunophenotyping of peptide-responsive T cells (IFNγ, TNFα, CD107a) after 12-day peptide culture and restimulation
Text: as §1

[3] = system: activated (IFNγ+) CD4+ or CD8+ T cells from post-transplant PBMCs; assay: IFNγ catch FACS sort and single cell RNA sequencing with V(D)J enrichment to identify antigen-specific TCR clones; conditions: figure legends FIG. 8-22; single cell V(D)J sequencing
Text: The following protocol was used to determine the sequence of TCRs recognising peptide 1 (SEQ ID NO: 1) or peptide 2 (SEQ ID NO: 2): • 1. Culture post-transplant blood with peptide (identified from IFNγ ELISpot screen) to enrich for antigen-specific T cells. • 2. After peptide stimulation, FACS sort activated (IFNγ+) T cells and control (IFNγ−) T cells. • 3. Single cell RNA sequencing with V (D) J enrichment. […]
The following protocol was used to determine the sequence of TCRs recognising the alloreactive peptide antigens set out in Table 3 above: • 1. Thaw post-transplant PBMCs from the patient from whom the peptide antigen was detected. Culture the cells with peptide, IL-2 and IL-7 for 12 days. • 2. Rest cells overnight. • 3. Stimulate cells with peptide for 6 hours. • 4. Stain cells for FACS using antibodies and IFNγ catch reagent. • 5. FACS sorting of activated (IFNγ+) CD4+ or CD8+ T cells and negative control (IFNγ−) populations. • 6. 10× Chromium single cell RNA sequencing with V (D) J enrichment.
T cells recognizing 18 of the 24 peptides set out in Table 3 (including PADI4) were detectable by FACS. Of these, 17 were detectable using IFNγ catch. Data are shown in Tables 4 and 5 below, and in FIGS. 8 to 23. In Table 5, clones were included that were (a) greater in size than the largest clone in the control repertoire, or (b)>10% of the repertoire, even if not larger than the largest clone in the control repertoire.

[4] = Table 3, IFNγ ELISpots with HLA-blocking antibodies
[5] = Table 3, post-transplant blood cultured with peptide 12 days, then restimulated

Row | Sequence | HLA restriction [1, 4] | Restricting HLA allele ([1]; Table 3) | HLA restriction ([1]; Table 4) | CD4/CD8 responses [2, 5] | Frequency of response (% IFN* cells amongst CD4+ or CD8+ by FACS) [2, 5] | CD4/CD8 responses ([2]; Table 4) | Freq. of response (% IFNγ+ cells amongst CD4+ or CD8+ by FACS) ([2]; Table 4) | Size of expanded T cell clone in activated (IFNγ+) repertoire after peptide stimulation and IFNγ catch [3] [%]
1 | AGTGLASIIAATMARTVYCT (listed as Homo sapiens) [OX747-191] | HLA-DR | DRB1*04:04:01/DRB1*13:02:01/DRB3*03:01/DRB4*01:03 | HLA-DR | Likely CD4 | Not detected | Likely CD4 | Not detected | 
2 | APISLSSFFNVSTLEREVTD (listed as Homo sapiens) [OX747-185] | HLA-DR | DRB1*04:04:01/DRB1*13:02:01/DRB3*03:01/DRB4*01:03 | HLA-DR | Likely CD4 | Not detected | Likely CD4 | Not detected | 
3 | DRAEKFNRGIRKLGITPEGQ (listed as Homo sapiens) [OX628-308] |  |  |  | CD4 |  | CD4 | 1.96% | 76.1
4 | EKFNRGIRKLGITPEGQSYL (listed as Homo sapiens) [OX628-309] |  |  |  | CD4 |  | CD4 | 1.06% | 76.1
5 | GQKSPRFRRVSCFLRLGRST (listed as Homo sapiens) [OX802-321] |  |  |  | CD4 |  | CD4 | 5.47% | 
6 | ITVQTVYVQHLITFLDRPIQ (listed as Homo sapiens) [OX628-80] | HLA-DR | DRB1*03:01/DRB1*15:01/DRB3*01:01/04/DRB5*01:01:01 | HLA-DR | CD4 |  | CD4 | 2.36% | 
7 | KALLKRLLKGMQKKRPSDVQ (listed as Homo sapiens) [OX993-414] | HLA-DR | DRB1*01:01/DRB1*11:01/DRB3*02:02/28/29N | HLA-DR | Likely CD4 |  | CD4 | 0.4% | 
8 | KVVGARGVGKSAFLQAFLGR (listed as Homo sapiens) [OX813-102] | Indeterminate |  |  | Indeterminate | Not detected |  | Not detected | 
9 | LELGAGTGLASIIAATMART (listed as Homo sapiens) [OX747-190] | HLA-DR | DRB1*04:04:01/DRB1*13:02:01/DRB3*03:01/DRB4*01:03 | HLA-DR | Likely CD4 | Not detected | Likely CD4 | Not detected | 
10 | LGLIFALTLNRHKYPLNLYL (listed as Homo sapiens) [OX747-158] |  |  |  | CD4 |  | CD4 | 0.45% | 
11 | LGSLGLIFALTLNRHKYPLN (listed as Homo sapiens) [OX747-157] |  |  |  | CD4 |  | CD4 | 0.325% | 
12 | LHRDKALLKRLLKGMQKKRP (listed as Homo sapiens) [OX993-413] | HLA-DR | DRB1*01:01/DRB1*11:01/DRB3*02:02/28/29N | HLA-DR | Likely CD4 |  | CD4 | 0.4% | 
13 | MNYVSKRLPFAARLNTPMGP (listed as Homo sapiens) [OX1098-614] | Indeterminate |  | HLA-DP | Indeterminate | Not detected | Likely CD4 | Not detected | 
14 | NPLSPYLNVDPRYLVQDT (listed as Homo sapiens) [OX289-180] | Likely HLA-DR | DRB1*03:01/DRB1*07:01:01/DRB3*02:02/05/11/13/14/17-23/DRB4*01:01-05/07 | HLA-DR | CD4 |  | CD4 | 0.98% | 
15 | PGLISMFSSSQELGAALAQL (listed as Homo sapiens) [OX628-564] |  |  |  | Indeterminate | Not detected |  | Not detected | 
16 | PLYRQRYQFIKNLVDQHEPK (listed as Homo sapiens) [OX289-074] |  |  |  | CD4 |  | CD4 | 0.24% | 
17 | PPLYRQRYQFIKNLVDQHEP (listed as Homo sapiens) [OX289-073] |  |  |  | CD4 |  | CD4 | 0.36% | 
18 | QTVYVQHLITFLDRPIQMCC (listed as Homo sapiens) [OX628-81] | HLA-DR | DRB1*03:01/DRB1*15:01/DRB3*01:01/04/DRB5*01:01:01 | HLA-DR | CD4 |  | CD4 | 1.12% | 
19 | RFRRVSCFLRLGRSTLLELE (listed as Homo sapiens) [OX802-322] |  |  |  | CD4 |  | CD4 | 3.23% | 
20 | TDRALQNKSISAFLVPMPTP (listed as Homo sapiens) [OX289-205] |  |  |  | CD4 |  | CD4 | 0.89% | 
21 | TQRSVLLCKVVGARGVGKSA (listed as Homo sapiens) [OX813-101] | Indeterminate |  |  | Indeterminate | Not detected |  | Not detected | 
22 | VPREYVRALNATKLERVFAK (listed as Homo sapiens) [OX628-305] | Indeterminate |  |  | Indeterminate | Not detected |  | Not detected | 
23 | VSRPELLRESISAFLVPMPT (listed as Homo sapiens) [OX289-075] |  |  |  | CD4 |  | CD4 | 1.33% | 
